Experimental data taken from patent publication US10703728B1, “Crystalline form of olaparib and a process for preparing the same” (SCINOPHARM TAIWAN, LTD., priority 2019, dated 2020).
Values after ≈ are worked out from the molar mass of the structure shown.

Assays:
[1] = Solubility of olaparib at 60° C. in solvents and anti-solvents; format: physicochemical
Experimental: (§1) “Solvent” refers to a liquid substance capable of dissolving olaparib at a concentration of at least about 2.5% (w/w) at 60° C.
In the Tables above, examples of good solvents include, but are not limited to, an alcohol (e.g., methanol or ethanol), acetic acid, dimethylacetamide, dimethyl sulfoxide and pyridine. Examples of poor solvents (anti-solvents) include, but are not limited to, water, toluene, acetonitrile, cyclohexane, isopropanol, tetrahydrofuran, n-butanol, xylenes, ethyl acetate and n-heptane.

[2] = Solubility of olaparib at room temperature; format: physicochemical; settings: for solubility: organic solvent or mixture
Experimental: as §1

Solubility of olaparib ([1]; ACN): <2.1 wt %
Solubility of olaparib ([1]; DMAc): >23.5 wt %
Solubility of olaparib (Summary, solvents for olaparib) ([1]; DMAc, Pyridine): >15% (w/w)
Solubility of olaparib ([1]; EA): <1.8 wt %
Solubility of olaparib ([1]; EtOH): 2.6-2.9 wt %
Solubility of olaparib (Summary, solvents for olaparib) ([1]; EtOH, MeOH): 2.5-10% (w/w)
Solubility of olaparib ([1]; IPA): <2.1 wt %
Solubility of olaparib ([1]; MeOH): 6.7-8.8 wt %
Solubility of olaparib ([1]; Pyridine): >21.5 wt %
Solubility of olaparib ([1]; THF): <1.9 wt %
Solubility of olaparib ([1]; Toluene): <1.9 wt %
Solubility of olaparib (Summary, anti-solvents for olaparib) ([1]; Toluene, ACN, Cyclohexane, IPA, THF, EA, Xylenes, n-heptane, Water, n-butanol): <2.5% (w/w)
Solubility of olaparib ([1]; Xylenes): <1.9 wt %
solubility ([1]; acetonitrile (ACN), organic solvent or mixture, ACN): < 16.2 mg/mL
Solubility of olaparib ([1]; cyclohexane): <2.1 wt %
solubility ([1]; dimethylacetamide (DMAc), organic solvent or mixture, DMAc): > 220 mg/mL
solubility ([1]; ethanol (EtOH), organic solvent or mixture, EtOH): 21 to 23 mg/mL (≈ 48.3 to 52.9 mM)
solubility ([1]; ethyl acetate (EA), organic solvent or mixture, EA): < 16.2 mg/mL
solubility ([1]; isopropanol (IPA), organic solvent or mixture, IPA): < 16.2 mg/mL
solubility ([1]; methanol (MeOH), organic solvent or mixture, MeOH): 53 to 70 mg/mL (≈ 122 to 161 mM)
Solubility of olaparib ([1]; n-butanol): <2.1 wt %
Solubility of olaparib ([1]; n-heptane): <2.4 wt %
solubility ([1]; organic solvent or mixture, Pyridine): > 210 mg/mL
solubility ([1]; organic solvent or mixture, Toluene): < 16.9 mg/mL
solubility ([1]; organic solvent or mixture, Xylenes): < 16.2 mg/mL
solubility ([1]; organic solvent or mixture, cyclohexane): < 16.2 mg/mL
solubility ([1]; organic solvent or mixture, n-butanol): < 16.9 mg/mL
solubility ([1]; organic solvent or mixture, n-heptane): < 16.2 mg/mL
solubility ([1]; tetrahydrofuran (THF), organic solvent or mixture, THF): < 16.9 mg/mL
Solubility of olaparib ([1]; water): <1.6 wt %
solubility ([1]; water): < 16.2 mg/mL
Solubility of olaparib ([2]; AcOH): >20.0 wt %
Solubility of olaparib (Summary, solvents for olaparib) ([2]; AcOH, DMSO): >15% (w/w)
Solubility of olaparib ([2]; DMSO): >19.1 wt %
solubility ([2]; acetic acid (AcOH), AcOH): > 210 mg/mL
solubility ([2]; dimethyl sulfoxide (DMSO), DMSO): > 210 mg/mL
Compound: O=C(c1cc(Cc2n[nH]c(=O)c3ccccc23)ccc1F)N1CCN(C(=O)C2CC2)CC1 [olaparib, 4-[(3-[(4-cyclopropylcarbonyl)piperazin-4-yl]carbonyl)-4-fluorophenyl]methyl(2H)phthalazin-1-one]
